This is an account of results in patent US20240327383A1 (priority 2021, published 2024).

Assay [1] has as its system SNI neuropathic pain. Also noted: species or system rats. Particulars: rat, in vivo.
The subject of assay [2] is SNI neuropathic pain. Also on record: species or system rats. Particulars: rat, in vivo. The source holds these as a separate data set.

Several values for one entry are separate records, joined by “and”; a condition that tells them apart may be missing. Equal entries are not always repeated.

For the compound `NCC1(CC(=O)O)CCCCC1` [Gabapentin], the “mean relative analgesic rate of Von Frey Hairs” value in the assay on SNI neuropathic pain [1] was 29.71% and 36.26%. Besides, the “mean relative analgesic rate of foot weight bearing” value with SNI neuropathic pain [2] was 20.85% and 17.55% and 14.07%.
